From Sander's compilation of Henry's law constants (doi:10.1021/je025545i)

Assay: Henry solubility constant Hcp at 298.15 K (mol/(m3 Pa))
Conditions: reference: Destaillats and Charles (2002)

Structure (SMILES)	Henry solubility constant Hcp
Fc1c(F)c(F)c(CO/N=C/c2ccccc2)c(F)c1F [PFBHA-benzaldehyde]	0.005
CC/C(C)=N\OCc1c(F)c(F)c(F)c(F)c1F [PFBHA-butanone]	0.0047
C/C=C/C=N/OCc1c(F)c(F)c(F)c(F)c1F [PFBHA-crotonaldehyde]	0.0068
CCCCCCCCC/C=N/OCc1c(F)c(F)c(F)c(F)c1F [PFBHA-decanal]	0.024
CC=NOCc1c(F)c(F)c(F)c(F)c1F [PFBHA-ethanal]	0.019
Fc1c(F)c(F)c(CON=CC=NOCc2c(F)c(F)c(F)c(F)c2F)c(F)c1F [PFBHA-ethanedial]	0.016
CCCCC/C=N/OCc1c(F)c(F)c(F)c(F)c1F [PFBHA-hexanal]	0.0058
C=NOCc1c(F)c(F)c(F)c(F)c1F [PFBHA-methanal]	0.016
CCCCCCC/C=N/OCc1c(F)c(F)c(F)c(F)c1F [PFBHA-octanal]	0.0079
CC(C)=NOCc1c(F)c(F)c(F)c(F)c1F [PFBHA-propanone]	0.011
C=C/C=N/OCc1c(F)c(F)c(F)c(F)c1F [PFBHA-propenal]	0.0095
c1ccc(-c2ccccc2)cc1 [biphenyl]	0.034
Cc1ccccc1 [methylbenzene]	0.002
c1ccc2ccccc2c1 [naphthalene]	0.024
